According to patent publication US20160280688A1, “SUBSTITUTED PHENYLALANINE DERIVATIVES” (BAYER PHARMA AKTIENGESELLSCHAFT, priority 2013, published 2016):
pIC50: −log10 of the molar value. Counter-ions that a name gives are not always drawn.

Assays:
Type in all cases: biochemical
human and animal plasma = test: Determination of the anticoagulatory activity: activated partial thromboplastin time (aPTT) in plasma; details: in vitro in plasma, C.K. Prest kit, 3 min at 37° C.
Protocol: The anticoagulatory activity of the test substances is determined in vitro in human and animal plasma (for example mouse, rat, rabbit, pig and dog plasma). To this end, blood is drawn off in a mixing ratio of sodium citrate/blood of 1:9 using a 0.11 molar sodium citrate solution as receiver. Immediately after the blood has been drawn off, it is mixed thoroughly and centrifuged at about 4000 g for 15 minutes. The supernatant is pipetted off.
The activated partial thromboplastin time (aPTT) is determined in the presence of varying concentrations of test substance or the corresponding solvent using a commercial test kit (C.K. Prest from Diagnostica Stago). The test compounds are incubated with the plasma and the PTT reagent (cephalin, kaolin) at 37° C. for 3 minutes. Coagulation is then started by addition of a 25 mM aqueous calcium chloride solution, and the time when coagulation occurs is determined. The concentration of test substance which brings about a 1.5-fold extension of the aPTT is determined Activity data from this test are listed in Table B below: […]

human factor XIa = target: T1, human factor XIa (Homo sapiens, UniProt P03951); test: Measurement of FXIa inhibition (fluorogenic peptide substrate Boc-Glu(OBzl)-Ala-Arg-AMC); details: factor XIa from Kordia, 15 min preincubation, 30 min at 22° C., fluorescence
T1 construct: purchased Kordia
T1 sequence (P03951 388-625 limits assumed): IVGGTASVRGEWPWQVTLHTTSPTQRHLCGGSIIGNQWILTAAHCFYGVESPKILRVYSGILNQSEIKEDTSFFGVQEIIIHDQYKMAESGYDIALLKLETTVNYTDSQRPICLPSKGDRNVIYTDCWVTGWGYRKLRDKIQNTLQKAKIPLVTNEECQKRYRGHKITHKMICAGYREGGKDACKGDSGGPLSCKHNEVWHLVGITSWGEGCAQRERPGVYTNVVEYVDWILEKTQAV
T1 sequence (P03951 19-387 partner limits assumed): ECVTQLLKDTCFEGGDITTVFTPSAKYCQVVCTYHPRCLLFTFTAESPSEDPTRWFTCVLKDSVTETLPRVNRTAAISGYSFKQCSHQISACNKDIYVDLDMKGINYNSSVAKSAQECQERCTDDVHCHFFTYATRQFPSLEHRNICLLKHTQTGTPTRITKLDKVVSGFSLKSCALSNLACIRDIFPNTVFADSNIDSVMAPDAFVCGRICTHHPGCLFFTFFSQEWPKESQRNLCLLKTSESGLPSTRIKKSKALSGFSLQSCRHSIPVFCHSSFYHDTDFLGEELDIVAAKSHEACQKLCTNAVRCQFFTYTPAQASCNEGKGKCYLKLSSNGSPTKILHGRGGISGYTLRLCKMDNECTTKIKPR
Protocol: To determine the factor XIa inhibition of the substances according to the invention, a biochemical test system is used which utilizes the reaction of a peptidic factor XIa substrate to determine the enzymatic activity of human factor XIa. Here, factor XIa cleaves from the peptic factor XIa substrate the C-terminal aminomethylcoumarin (AMC), the fluorescence of which is measured. The determinations are carried out in microtitre plates.
(§1) Test substances are dissolved in dimethyl sulphoxide and serially diluted in dimethyl sulphoxide (3000 μM to 0.0078 μM; resulting final concentrations in the test: 50 μM to 0.00013 μM). In each case 1 μl of the diluted substance solutions are placed into the wells of white microtitre plates from Greiner (384 wells). Subsequently, the following are added successively: 20 μl of assay buffer (50 mmol/l Tris buffer pH 7.4; 100 mmol/l sodium chloride; 5 mmol/l calcium chloride; 0.1% bovine serum albumin) and 20 μl of factor XIa from Kordia (0.45 nM in assay buffer). After 15 min of incubation, the enzyme reaction is started by addition of 20 μl of the factor XIa substrate Boc-Glu(OBzl)-Ala-Arg-AMC dissolved in assay buffer (10 μM in assay buffer) from Bachem, the mixture is incubated at room temperature (22° C.) for 30 min and fluorescence is then measured (excitation: 360 nm, emission: 460 nm). The measured emissions of the test batches with test substance are compared to those of control batches without test substance (only dimethyl sulphoxide instead of test substance in dimethyl sulphoxide), and IC50 values are calculated from the concentration/activity relationships.

human plasmin = target: T2, human plasmin (Homo sapiens, UniProt P00747); test: Measurement of plasmin inhibition (fluorogenic peptide substrate MeOSuc-Ala-Phe-Lys-AMC); details: plasmin from Kordia, 15 min preincubation, 30 min at 22° C., fluorescence
T2 construct: purchased Kordia
T2 sequence (P00747 581-810 limits assumed): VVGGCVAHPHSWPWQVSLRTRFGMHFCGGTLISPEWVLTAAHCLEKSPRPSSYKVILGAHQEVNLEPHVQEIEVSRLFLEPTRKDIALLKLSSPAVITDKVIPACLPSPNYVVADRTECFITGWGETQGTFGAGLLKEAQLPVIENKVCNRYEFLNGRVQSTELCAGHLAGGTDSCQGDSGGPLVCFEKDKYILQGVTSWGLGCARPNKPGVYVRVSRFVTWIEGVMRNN
T2 sequence (P00747 97-580 partner limits assumed): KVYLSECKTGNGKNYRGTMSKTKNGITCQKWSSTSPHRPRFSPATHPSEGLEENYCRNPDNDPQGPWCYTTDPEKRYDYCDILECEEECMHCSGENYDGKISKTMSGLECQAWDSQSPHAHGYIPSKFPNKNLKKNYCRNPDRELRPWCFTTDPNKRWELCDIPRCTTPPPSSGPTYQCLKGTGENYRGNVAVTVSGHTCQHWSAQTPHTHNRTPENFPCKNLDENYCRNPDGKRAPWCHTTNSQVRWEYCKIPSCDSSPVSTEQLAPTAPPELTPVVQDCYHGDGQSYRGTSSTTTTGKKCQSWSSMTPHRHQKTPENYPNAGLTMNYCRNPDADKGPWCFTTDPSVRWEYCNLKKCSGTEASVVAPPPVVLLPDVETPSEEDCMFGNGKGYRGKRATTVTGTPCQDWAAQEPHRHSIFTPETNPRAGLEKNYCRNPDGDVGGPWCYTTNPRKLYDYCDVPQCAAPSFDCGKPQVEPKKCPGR
Protocol: The plasmin inhibition of the inventive substances is determined using a biochemical test system which utilizes the reaction of a peptidic plasmin substrate to determine the enzymatic activity of human plasmin. Here, plasmin cleaves from the peptic plasmin substrate the C-terminal aminomethylcoumarin (AMC), the fluorescence of which is measured. The determinations are carried out in microtitre plates.
as §1, with “plasmin” for “factor XIa”, “(0.3 μg/ml” for “(0.45 nM”, “MeOSuc-Ala-Phe-Lys-AMC” for “Boc-Glu(OBzl)-Ala-Arg-AMC”, “(150” for “(10”, “ICso” for “IC50”

SMILES	pIC50 (human factor XIa)	pIC50 (human plasmin)	aPTT (concentration of test substance which brings about a 1.5-fold extension of the aPTT) (human and animal plasma)
Cc1cc2[nH]c(C3CC3)nc2cc1-c1ccc(C[C@H](NC(=O)[C@H]2CC[C@H](CN)CC2)C(=O)Nc2cc(F)c3c(=O)[nH][nH]c3c2)cc1 [Example 22, N-alpha-{[trans-4-(Aminomethyl)cyclohexyl]carbonyl}-4-(2-cyclopropyl-6-methyl-1H-benzimidazol-5-yl)-N-(4-fluoro-3-oxo-2,3-dihydro-1H-indazol-6-yl)-L-phenylalaninamide hydrochloride]	9.30	9.22	0.18 µmol/L
Cc1nc2[nH]c(C3CC3)nc2cc1-c1ccc(C[C@H](NC(=O)[C@H]2CC[C@H](CN)CC2)C(=O)Nc2ccc3[nH]c(=O)[nH]c3c2)cc1 [Example 21, N-alpha-{[trans-4-(Aminomethyl)cyclohexyl]carbonyl}-4-(2-cyclopropyl-5-methyl-1H-imidazo[4,5-b]pyridin-6-yl)-N-(2-oxo-2,3-dihydro-1H-benzimidazol-5-yl)-L-phenylalaninamide]	9.15	9.40	0.3 µmol/L
Cc1cc2nc[nH]c2cc1-c1ccc(C[C@H](NC(=O)C2CCC(CN)CC2)C(=O)Nc2ccc(-c3nn[nH]n3)cc2)cc1 (stereo partly drawn) [Example 1, N-alpha-{[trans-4-(Aminomethyl)cyclohexyl]carbonyl}-4-(5-methyl-1H-benzimidazol-6-yl)-N-[4-(2H-tetrazol-5-yl)phenyl]-L-phenylalaninamide hydrochloride]	9.05	7.66	0.07 µmol/L
Cc1cc2[nH]c(C3CC3)nc2cc1-c1ccc(C[C@H](NC(=O)[C@H]2CC[C@H](CN)CC2)C(=O)Nc2cc(Cl)c3[nH]c(=O)[nH]c3c2)cc1 [Example 20, N-alpha-{[trans-4-(Aminomethyl)cyclohexyl]carbonyl}-N-(7-chloro-2-oxo-2,3-dihydro-1H-benzimidazol-5-yl)-4-(2-cyclopropyl-6-methyl-1H-benzimidazol-5-yl)-L-phenylalaninamide]	9.05	9.40	0.26 µmol/L
Cc1c(-c2ccc(C[C@H](NC(=O)[C@H]3CC[C@H](CN)CC3)C(=O)Nc3ccc4[nH]c(=O)[nH]c4c3)cc2)cc2nc(C3CCC3)[nH]c2c1F [Example 27, N-alpha-{[trans-4-(Aminomethyl)cyclohexyl]carbonyl}-4-(2-cyclobutyl-7-fluoro-6-methyl-1H-benzimidazol-5-yl)-N-(2-oxo-2,3-dihydro-1H-benzimidazol-5-yl)-L-phenylalaninamide]	9.05	9.35	0.16 µmol/L

Second part, led by results:

pIC50 (human factor XIa)	pIC50 (human plasmin)	SMILES	aPTT (concentration of test substance which brings about a 1.5-fold extension of the aPTT) (human and animal plasma)
8.16	8.82	CC(C)c1nc2c(F)c(F)c(-c3ccc(C[C@H](NC(=O)[C@H]4CC[C@H](CN)CC4)C(=O)Nc4ccc5[nH]c(=O)[nH]c5c4)cc3)cc2[nH]1 [Example 35, N-alpha-{[trans-4-(Aminomethyl)cyclohexyl]carbonyl}-4-(4,5-difluoro-2-isopropyl-1H-benzimidazol-6-yl)-N-(2-oxo-2,3-dihydro-1H-benzimidazol-5-yl)-L-phenylalaninamide hydrochloride]	0.54 µmol/L
7.55	8.06	CC(C)n1[nH]c2cc(-c3ccc(C[C@H](NC(=O)[C@H]4CC[C@H](CN)CC4)C(=O)Nc4ccc5cn[nH]c5c4)cc3)ccc2c1=O [Example 32, N-alpha-{[trans-4-(Aminomethyl)cyclohexyl]carbonyl}-N-1H-indazol-6-yl-4-(2-isopropyl-3-oxo-2,3-dihydro-1H-indazol-6-yl)-L-phenylalaninamide hydrochloride]	0.43 µmol/L
8.31	9.30	Cc1cc2nc(C(C)C)[nH]c2nc1-c1ccc(C[C@H](NC(=O)[C@H]2CC[C@H](CN)CC2)C(=O)Nc2ccc3[nH]c(=O)[nH]c3c2)cc1 [Example 37, N-alpha-{[trans-4-(Aminomethyl)cyclohexyl]carbonyl}-4-(2-isopropyl-6-methyl-3H-imidazo[4,5-b]pyridin-5-yl)-N-(2-oxo-2,3-dihydro-1H-benzimidazol-5-yl)-L-phenylalaninamide hydrochloride]	0.06 µmol/L
8.82	8.77	Cc1cc2c(=O)n(C(C)C)[nH]c2cc1-c1ccc(C[C@H](NC(=O)[C@H]2CC[C@H](CN)CC2)C(=O)Nc2ccc3[nH]c(=O)[nH]c3c2)cc1 [Example 34, N-alpha-{[trans-4-(Aminomethyl)cyclohexyl]carbonyl}-4-(2-isopropyl-5-methyl-3-oxo-2,3-dihydro-1H-indazol-6-yl)-N-(2-oxo-2,3-dihydro-1H-benzimidazol-5-yl)-L-phenylalaninamide hydrochloride]	0.11 µmol/L
7.77	8.23	CC(C)n1[nH]c2cc(-c3ccc(C[C@H](NC(=O)[C@H]4CC[C@H](CN)CC4)C(=O)Nc4ccc5[nH]c(=O)[nH]c5c4)cc3)ccc2c1=O [Example 33, N-alpha-{[trans-4-(Aminomethyl)cyclohexyl]carbonyl}-4-(2-isopropyl-3-oxo-2,3-dihydro-1H-indazol-6-yl)-N-(2-oxo-2,3-dihydro-1H-benzimidazol-5-yl)-L-phenylalaninamide hydrochloride]	0.1 µmol/L
